Test results reported in patent US10870647B2, “Imidazopyridine derivative, method for preparing same, and pharmaceutical composition containing same as active ingredient for preventing or treating cancer” (DAEGU-GYEONGBUK MEDICAL INNOVATION FOUNDATION, priority 2016, dated 2020).

How the values were obtained:
Assay in all cases: Kinase selectivity, scanMAX Kinase assay panel (DiscoverX), % control at 1 uM
Type in all cases: binding
[1] = target: T1, scanMAX Kinase assay panel (Homo sapiens, UniProt Q16816); details: PHKG1; 1 uM; read-out: Percent Control (%)
T1 construct: purchased DiscoverX
T1 sequence (Q16816 whole entry): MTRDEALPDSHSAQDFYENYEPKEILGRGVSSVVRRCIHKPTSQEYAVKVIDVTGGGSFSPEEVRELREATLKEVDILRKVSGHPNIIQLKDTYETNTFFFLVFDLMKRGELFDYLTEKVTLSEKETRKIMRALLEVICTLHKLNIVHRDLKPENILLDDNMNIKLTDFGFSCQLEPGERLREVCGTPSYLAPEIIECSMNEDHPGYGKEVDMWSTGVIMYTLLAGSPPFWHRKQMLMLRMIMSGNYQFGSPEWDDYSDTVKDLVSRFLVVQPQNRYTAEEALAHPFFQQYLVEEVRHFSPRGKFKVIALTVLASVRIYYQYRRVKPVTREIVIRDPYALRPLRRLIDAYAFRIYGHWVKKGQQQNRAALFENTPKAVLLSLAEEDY
Procedure, shortened: (§1)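 Binding across the scanMAX kinase panel was tested at 1 uM compound. % control = (compound − positive control)/(negative control − positive control) × 100; below 35 counted as active.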

[2] = target: T2, scanMAX Kinase assay panel (Homo sapiens, UniProt Q13237); details: PRKG2; 1 uM; read-out: Percent Control (%)
T2 construct: purchased DiscoverX
T2 sequence (Q13237 1-762): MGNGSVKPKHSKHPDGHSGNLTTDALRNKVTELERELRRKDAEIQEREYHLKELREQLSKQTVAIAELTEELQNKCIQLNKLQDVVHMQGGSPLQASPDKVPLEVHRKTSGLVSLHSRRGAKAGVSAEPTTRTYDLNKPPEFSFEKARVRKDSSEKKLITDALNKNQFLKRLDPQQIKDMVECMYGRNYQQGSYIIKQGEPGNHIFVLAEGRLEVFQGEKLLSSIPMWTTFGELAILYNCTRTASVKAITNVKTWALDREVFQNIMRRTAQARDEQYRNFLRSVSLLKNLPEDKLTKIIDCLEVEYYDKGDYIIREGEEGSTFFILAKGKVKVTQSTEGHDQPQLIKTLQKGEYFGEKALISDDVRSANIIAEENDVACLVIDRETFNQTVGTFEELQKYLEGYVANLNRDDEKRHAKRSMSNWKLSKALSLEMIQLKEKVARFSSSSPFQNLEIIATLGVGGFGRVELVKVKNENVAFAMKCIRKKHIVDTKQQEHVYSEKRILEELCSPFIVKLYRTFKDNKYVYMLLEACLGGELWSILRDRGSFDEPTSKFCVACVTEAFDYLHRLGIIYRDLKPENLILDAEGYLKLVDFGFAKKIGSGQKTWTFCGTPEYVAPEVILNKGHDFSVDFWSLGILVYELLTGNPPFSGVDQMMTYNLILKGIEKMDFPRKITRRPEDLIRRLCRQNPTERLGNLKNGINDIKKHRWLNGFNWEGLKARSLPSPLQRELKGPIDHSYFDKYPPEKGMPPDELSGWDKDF
Procedure, shortened: as §1

[3] = target: T3, scanMAX Kinase assay panel (Homo sapiens, UniProt Q13153); details: PAK1; 1 uM; read-out: Percent Control (%)
T3 construct: purchased DiscoverX
T3 sequence (Q13153 whole entry): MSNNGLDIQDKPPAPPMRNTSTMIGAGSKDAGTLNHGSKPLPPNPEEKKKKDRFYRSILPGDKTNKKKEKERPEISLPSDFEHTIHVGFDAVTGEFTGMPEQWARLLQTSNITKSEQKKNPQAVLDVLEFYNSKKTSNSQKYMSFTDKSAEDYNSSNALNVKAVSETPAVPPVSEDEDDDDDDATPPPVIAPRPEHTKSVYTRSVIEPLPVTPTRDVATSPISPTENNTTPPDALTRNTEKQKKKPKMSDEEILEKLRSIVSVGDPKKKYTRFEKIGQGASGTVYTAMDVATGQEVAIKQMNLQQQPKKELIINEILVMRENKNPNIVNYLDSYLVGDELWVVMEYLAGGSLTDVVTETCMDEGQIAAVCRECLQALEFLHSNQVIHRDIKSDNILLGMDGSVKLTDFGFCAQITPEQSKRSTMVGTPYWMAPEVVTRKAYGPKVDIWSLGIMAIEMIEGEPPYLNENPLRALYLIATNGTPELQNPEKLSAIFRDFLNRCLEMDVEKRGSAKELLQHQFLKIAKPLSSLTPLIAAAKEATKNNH
Procedure, shortened: as §1

[4] = target: T4, scanMAX Kinase assay panel (Homo sapiens, UniProt P52564); details: MEK6; 1 uM; read-out: Percent Control (%)
T4 construct: purchased DiscoverX
T4 sequence (P52564 1-334): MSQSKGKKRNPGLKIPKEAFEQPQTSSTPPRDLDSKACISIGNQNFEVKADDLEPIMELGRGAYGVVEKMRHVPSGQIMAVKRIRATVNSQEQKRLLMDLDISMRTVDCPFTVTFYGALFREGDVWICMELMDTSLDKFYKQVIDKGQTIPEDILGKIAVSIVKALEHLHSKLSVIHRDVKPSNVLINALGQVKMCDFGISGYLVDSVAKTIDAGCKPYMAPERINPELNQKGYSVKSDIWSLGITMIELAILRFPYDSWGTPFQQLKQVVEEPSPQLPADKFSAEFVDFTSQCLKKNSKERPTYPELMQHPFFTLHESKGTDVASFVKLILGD
Procedure, shortened: as §1

[5] = target: T5, scanMAX Kinase assay panel (Homo sapiens, UniProt Q16566); details: CAMK4; 1 uM; read-out: Percent Control (%)
T5 construct: purchased DiscoverX
T5 sequence (Q16566 1-473): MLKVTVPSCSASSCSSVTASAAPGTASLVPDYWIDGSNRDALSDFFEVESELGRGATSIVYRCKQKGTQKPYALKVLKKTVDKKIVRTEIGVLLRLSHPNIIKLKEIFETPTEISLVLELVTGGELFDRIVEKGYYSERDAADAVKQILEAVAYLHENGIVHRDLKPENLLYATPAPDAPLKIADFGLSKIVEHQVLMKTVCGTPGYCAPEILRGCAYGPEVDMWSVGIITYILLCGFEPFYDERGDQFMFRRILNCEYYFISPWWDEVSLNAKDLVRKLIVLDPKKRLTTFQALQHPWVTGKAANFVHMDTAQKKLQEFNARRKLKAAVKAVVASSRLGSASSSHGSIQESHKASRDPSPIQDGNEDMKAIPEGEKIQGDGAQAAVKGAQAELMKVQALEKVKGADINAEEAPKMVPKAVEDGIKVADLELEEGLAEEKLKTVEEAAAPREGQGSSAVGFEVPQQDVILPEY
Procedure, shortened: as §1

[6] = target: T6, scanMAX Kinase assay panel (Homo sapiens, UniProt P27361); details: ERK1; 1 uM; read-out: Percent Control (%)
T6 construct: purchased DiscoverX
T6 sequence (P27361 whole entry): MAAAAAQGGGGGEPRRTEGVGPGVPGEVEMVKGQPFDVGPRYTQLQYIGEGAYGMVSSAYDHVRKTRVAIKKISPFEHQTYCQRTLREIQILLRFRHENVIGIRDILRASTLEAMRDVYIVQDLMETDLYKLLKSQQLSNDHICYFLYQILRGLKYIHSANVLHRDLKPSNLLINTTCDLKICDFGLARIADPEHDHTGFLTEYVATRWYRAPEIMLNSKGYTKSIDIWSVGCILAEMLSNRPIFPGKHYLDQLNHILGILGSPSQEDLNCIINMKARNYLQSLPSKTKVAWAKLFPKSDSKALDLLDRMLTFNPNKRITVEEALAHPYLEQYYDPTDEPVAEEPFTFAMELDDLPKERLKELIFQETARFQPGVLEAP
Procedure, shortened: as §1

[7] = target: T7, scanMAX Kinase assay panel (Homo sapiens, UniProt O43683); details: BUB1; 1 uM; read-out: Percent Control (%)
T7 construct: purchased DiscoverX
T7 sequence (O43683 whole entry): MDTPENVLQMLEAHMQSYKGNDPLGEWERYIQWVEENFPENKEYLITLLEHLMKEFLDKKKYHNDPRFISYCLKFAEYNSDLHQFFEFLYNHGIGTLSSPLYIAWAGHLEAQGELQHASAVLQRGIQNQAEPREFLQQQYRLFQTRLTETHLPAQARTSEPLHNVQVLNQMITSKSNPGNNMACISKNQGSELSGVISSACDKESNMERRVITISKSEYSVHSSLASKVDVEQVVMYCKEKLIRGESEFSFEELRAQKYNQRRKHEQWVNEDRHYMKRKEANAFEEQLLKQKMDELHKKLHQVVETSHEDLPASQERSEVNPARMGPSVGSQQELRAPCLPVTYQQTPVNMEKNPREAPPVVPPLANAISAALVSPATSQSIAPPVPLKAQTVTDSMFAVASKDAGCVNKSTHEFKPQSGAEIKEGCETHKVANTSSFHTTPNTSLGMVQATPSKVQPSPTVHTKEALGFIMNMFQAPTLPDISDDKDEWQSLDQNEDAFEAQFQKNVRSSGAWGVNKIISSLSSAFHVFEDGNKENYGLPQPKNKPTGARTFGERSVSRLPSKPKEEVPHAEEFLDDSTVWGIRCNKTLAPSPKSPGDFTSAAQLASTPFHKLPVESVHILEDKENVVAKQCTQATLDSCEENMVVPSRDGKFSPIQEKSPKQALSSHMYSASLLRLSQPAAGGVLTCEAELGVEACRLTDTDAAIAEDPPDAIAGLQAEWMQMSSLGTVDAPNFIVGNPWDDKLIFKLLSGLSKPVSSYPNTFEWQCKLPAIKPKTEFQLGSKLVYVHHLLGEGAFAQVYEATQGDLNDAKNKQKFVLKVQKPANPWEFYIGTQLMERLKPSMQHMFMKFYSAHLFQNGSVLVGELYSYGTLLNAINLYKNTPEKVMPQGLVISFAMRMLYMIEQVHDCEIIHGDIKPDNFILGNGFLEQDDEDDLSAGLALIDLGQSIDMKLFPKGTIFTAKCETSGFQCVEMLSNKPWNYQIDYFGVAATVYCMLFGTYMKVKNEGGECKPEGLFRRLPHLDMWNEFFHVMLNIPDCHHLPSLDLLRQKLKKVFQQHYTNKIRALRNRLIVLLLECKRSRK
Procedure, shortened: as §1

[8] = target: T8, scanMAX Kinase assay panel (Homo sapiens, UniProt Q9H4B4); details: PLK3; 1 uM; read-out: Percent Control (%)
T8 construct: purchased DiscoverX
Procedure, shortened: as §1

[9] = target: T9, scanMAX Kinase assay panel (Homo sapiens, UniProt P48729); details: CSNK1A1; 1 uM; read-out: Percent Control (%)
T9 construct: purchased DiscoverX
T9 sequence (P48729 whole entry): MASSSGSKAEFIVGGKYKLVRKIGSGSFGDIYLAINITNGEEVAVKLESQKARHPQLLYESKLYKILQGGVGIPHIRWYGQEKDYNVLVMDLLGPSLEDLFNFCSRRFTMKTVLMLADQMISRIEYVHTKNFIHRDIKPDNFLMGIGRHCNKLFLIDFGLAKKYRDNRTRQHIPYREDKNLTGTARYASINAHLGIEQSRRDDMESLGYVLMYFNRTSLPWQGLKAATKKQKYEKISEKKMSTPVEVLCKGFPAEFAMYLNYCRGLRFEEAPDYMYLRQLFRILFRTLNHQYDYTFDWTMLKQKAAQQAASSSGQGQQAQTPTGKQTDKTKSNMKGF
Procedure, shortened: as §1

[10] = target: T10, scanMAX Kinase assay panel (Homo sapiens, UniProt P54764); details: EPHA4; 1 uM; read-out: Percent Control (%)
T10 construct: purchased DiscoverX
Procedure, shortened: as §1

[11] = target: T11, scanMAX Kinase assay panel (Homo sapiens, UniProt Q2M2I8); details: AAK1; 1 uM; read-out: Percent Control (%)
T11 construct: purchased DiscoverX
T11 sequence (Q2M2I8 whole entry): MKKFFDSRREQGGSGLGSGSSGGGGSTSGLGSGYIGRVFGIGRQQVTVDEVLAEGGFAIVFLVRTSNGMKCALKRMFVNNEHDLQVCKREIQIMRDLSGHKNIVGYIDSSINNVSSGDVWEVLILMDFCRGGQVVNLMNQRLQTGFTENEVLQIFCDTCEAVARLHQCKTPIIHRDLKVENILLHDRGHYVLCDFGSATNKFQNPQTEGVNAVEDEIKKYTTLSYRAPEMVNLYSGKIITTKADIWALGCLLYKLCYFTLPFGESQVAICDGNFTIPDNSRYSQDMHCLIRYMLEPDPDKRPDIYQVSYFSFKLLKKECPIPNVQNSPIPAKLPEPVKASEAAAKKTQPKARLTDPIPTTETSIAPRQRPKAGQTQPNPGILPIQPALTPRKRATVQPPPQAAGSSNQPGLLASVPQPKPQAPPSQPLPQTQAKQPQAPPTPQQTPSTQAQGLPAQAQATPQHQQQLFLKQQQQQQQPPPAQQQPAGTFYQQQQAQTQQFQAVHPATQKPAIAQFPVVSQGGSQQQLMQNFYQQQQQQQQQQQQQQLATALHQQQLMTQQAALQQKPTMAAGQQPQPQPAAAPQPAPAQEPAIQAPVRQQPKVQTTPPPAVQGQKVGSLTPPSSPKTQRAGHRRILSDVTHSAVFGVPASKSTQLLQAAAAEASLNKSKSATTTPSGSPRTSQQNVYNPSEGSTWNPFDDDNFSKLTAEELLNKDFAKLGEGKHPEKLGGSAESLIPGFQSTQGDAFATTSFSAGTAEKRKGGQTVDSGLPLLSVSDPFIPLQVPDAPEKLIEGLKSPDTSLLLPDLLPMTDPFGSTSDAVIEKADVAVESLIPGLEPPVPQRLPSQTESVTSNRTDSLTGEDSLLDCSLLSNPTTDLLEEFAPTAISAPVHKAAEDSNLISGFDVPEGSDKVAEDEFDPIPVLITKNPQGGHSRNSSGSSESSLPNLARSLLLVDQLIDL
Procedure, shortened: as §1

[12] = target: T12, scanMAX Kinase assay panel (Homo sapiens, UniProt P14616); details: INSRR; 1 uM; read-out: Percent Control (%)
T12 construct: purchased DiscoverX
Procedure, shortened: as §1

[13] = target: T13, scanMAX Kinase assay panel (Homo sapiens, UniProt Q9Y6M4); details: CSNK1G3; 1 uM; read-out: Percent Control (%)
T13 construct: purchased DiscoverX
Procedure, shortened: as §1

[14] = target: T14, scanMAX Kinase assay panel (Homo sapiens, UniProt Q8N4C8); details: MINK; 1 uM; read-out: Percent Control (%)
T14 construct: purchased DiscoverX
T14 sequence (Q8N4C8 whole entry): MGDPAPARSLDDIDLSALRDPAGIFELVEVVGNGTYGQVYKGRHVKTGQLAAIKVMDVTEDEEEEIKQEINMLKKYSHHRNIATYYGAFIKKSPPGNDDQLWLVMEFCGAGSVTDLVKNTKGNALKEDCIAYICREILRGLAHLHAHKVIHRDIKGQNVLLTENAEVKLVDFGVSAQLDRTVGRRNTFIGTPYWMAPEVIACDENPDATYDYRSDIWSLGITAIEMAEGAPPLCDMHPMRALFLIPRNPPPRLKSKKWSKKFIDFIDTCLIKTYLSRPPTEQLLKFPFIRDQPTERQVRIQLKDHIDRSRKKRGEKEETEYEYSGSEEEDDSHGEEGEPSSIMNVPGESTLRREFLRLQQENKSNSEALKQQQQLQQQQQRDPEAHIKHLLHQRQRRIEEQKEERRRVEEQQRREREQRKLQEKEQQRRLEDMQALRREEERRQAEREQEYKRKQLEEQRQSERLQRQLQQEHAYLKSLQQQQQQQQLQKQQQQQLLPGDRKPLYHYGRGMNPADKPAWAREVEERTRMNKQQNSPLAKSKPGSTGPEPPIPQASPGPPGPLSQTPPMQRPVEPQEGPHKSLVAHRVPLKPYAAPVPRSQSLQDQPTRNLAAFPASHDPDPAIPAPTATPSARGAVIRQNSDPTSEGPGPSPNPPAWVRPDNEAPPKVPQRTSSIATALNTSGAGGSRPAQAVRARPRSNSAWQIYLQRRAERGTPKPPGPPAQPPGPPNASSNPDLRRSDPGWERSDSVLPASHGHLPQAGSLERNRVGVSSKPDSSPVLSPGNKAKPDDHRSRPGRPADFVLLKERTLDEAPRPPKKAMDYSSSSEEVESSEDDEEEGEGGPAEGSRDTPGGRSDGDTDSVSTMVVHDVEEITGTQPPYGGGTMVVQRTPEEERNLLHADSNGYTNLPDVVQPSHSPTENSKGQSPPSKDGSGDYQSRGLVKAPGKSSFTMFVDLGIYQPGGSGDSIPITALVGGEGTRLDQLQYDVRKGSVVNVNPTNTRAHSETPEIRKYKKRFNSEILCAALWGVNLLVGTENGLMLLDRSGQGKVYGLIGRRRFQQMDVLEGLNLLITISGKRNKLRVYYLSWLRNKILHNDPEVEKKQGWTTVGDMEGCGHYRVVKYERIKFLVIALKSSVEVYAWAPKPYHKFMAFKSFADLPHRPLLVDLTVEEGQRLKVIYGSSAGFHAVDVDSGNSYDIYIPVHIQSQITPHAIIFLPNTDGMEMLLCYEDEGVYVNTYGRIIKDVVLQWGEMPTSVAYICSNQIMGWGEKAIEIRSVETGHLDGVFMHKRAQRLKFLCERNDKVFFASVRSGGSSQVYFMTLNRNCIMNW
Procedure, shortened: as §1

| Structure (SMILES) | remaining binding at 1 µM [1] [%] | remaining binding at 1 µM [2] [%] | remaining binding at 1 µM [3] [%] | remaining binding at 1 µM [4] [%] | remaining binding at 1 µM [5] [%] | remaining binding at 1 µM [6] [%] | remaining binding at 1 µM [7] [%] | remaining binding at 1 µM [8] [%] | remaining binding at 1 µM [9] [%] | remaining binding at 1 µM [10] [%] | remaining binding at 1 µM [11] [%] | remaining binding at 1 µM [12] [%] | remaining binding at 1 µM [13] [%] | remaining binding at 1 µM [14] [%] |
| --- | --- | --- | --- | --- | --- | --- | --- | --- | --- | --- | --- | --- | --- | --- |
| Cc1ccc(C(=O)Nc2ccc(CN3CCN(C)CC3)c(C(F)(F)F)c2)cc1C#Cc1cnc2c(Nc3cnn(C)c3)cccn12 [Example 1, 4-methyl-3-((8-((1-methyl-1H-pyrazol-4-yl)amino)imidazo[1,2-a]pyridin-3-yl)ethynyl)-N-(4-((4-methylpiperazin-1-yl)methyl)-3-(trifluoromethyl)phenyl)benzamide] | 85 | 75 | 89 | 86 | 99 | 87 | 84 | 77 | 67 | 1 | 64 | 47 | 100 | 2 |
| Cc1cn(-c2cc(NC(=O)c3ccc(C)c(C#Cc4cnc5c(Nc6cnn(C)c6)cccn45)c3)cc(C(F)(F)F)c2)cn1 [Example 12, 4-methyl-N-(3-(4-methyl-1H-imidazol-1-yl)-5-(trifluoromethyl)phenyl)-3-((8-((1-methyl-1H-pyrazol-4-yl)amino)imidazo[1,2-a]pyridin-3-yl)ethynyl)benzamide] | 84 | 90 | 87 | 89 | 87 | 100 | 100 | 100 | 76 | 24 | 85 | 95 | 84 | 44 |
| Cc1ccc(NC(=O)C2(C(=O)Nc3ccc(F)cc3)CC2)cc1C#Cc1cnc2c(Nc3cnn(C(C)C)c3)cccn12 [Example 78] | 88 | 100 | 100 | 100 | 100 | 100 | 100 | 92 | 85 | 91 | 100 | 93 | 100 | 87 |
